The values below come from patent publication US20120022159A1, “AMPHIPHILIC STAR-LIKE OR SCORPION-LIKE MACROMOLECULES, VARIOUS COMPOSITIONS AND USES THEREOF” (priority 2004, published 2012).

This test deals with human umbilical vein endothelial cells (HUVECs). Description: Uptake of dye-loaded AScMs in HUVEC monitored by cellular accumulation of fluorescent dyes. It is filed as cell-based. As for the experimental part: Methods Amphiphilic scorpion-like macromolecules (AScMs) are block copolymers that form micelles at concentrations above their CMC (5×10^−7 M). The uptake of AScMs was investigated in human umbilical vein endothelial cells (HUVECs) by monitoring cellular accumulation of the fluorescent dyes (R110, R123 and LY, respectively). Briefly, fluorescent dyes were added to AScMs solutions (0.0001-1 mM) and incubated at 37° C. for at least 6 hours prior to cell incubation. After determination of R110, R123 and LY partitioning into the AScMs micelles, dye-loaded AScMs were incubated with HUVEC. Uptake of dye-loaded AScMs was investigated as a function of time (15, 30, 60, 90 and 120 minutes) and AScMs concentration (0.0001-1 mM). Furthermore, intracellular distribution and localization of dye-loaded AScMs in HUVEC was investigated using confocal microscope. […] The decreased accumulation of R110, R123 and LY in HUVEC monolayers was inversely correlated with the extent of their partitioning into AScMs. Uptake of R110, R123 and LY-loaded micelles was also time-dependent. […] Furthermore, confocal microscopy studies confirmed increased fluorescence activity in the cells with increase in the incubation time. […] Thus, AScMs can be used to localize therapeutic compounds into cells, for example, to achieve a sustained therapeutic effect.

Where [1] appears, read: AScMs at concentrations above the CMC.
Setting [2] is: AScMs at concentrations below the CMC.

Turning to `COC(=O)c1ccccc1-c1c2ccc(N)cc2[o+]c2cc(N)ccc12` [R123], the “dye accumulation in HUVEC monolayers” value under setting [1] is reported as “significant decrease” and the “dye accumulation in HUVEC monolayers” value under setting [2] is “significant increase”.
As to `NNC(=O)NN1C(=O)c2cc(S(=O)(=O)[O-])cc3c(N)c(S(=O)(=O)[O-])cc(c23)C1=O.[Li+].[Li+]` [LY], the “dye accumulation in HUVEC monolayers” value was “significant decrease” under setting [1] and “significant increase” under setting [2].
Consider `Nc1ccc2c(-c3ccccc3C(=O)O)c3ccc(N)cc3[o+]c2c1.[Cl-]` [R110], for which the “dye accumulation in HUVEC monolayers” value is recorded as “significant decrease” under setting [1] and “significant increase” under setting [2].
